Data: ChEMBL document CHEMBL1156198 (J Med Chem, 2010)

What was measured:
[1] = AUC in CD1 mouse at 10 mg/kg, po; format: ADME, organism-based; set-up: dose 10 mg/kg, route oral; settings: plasma
[2] = Terminal phase volume of distribution in CD1 mouse; format: ADME, organism-based; settings: in vivo, read-out: Vbeta
[3] = Clearance in CD1 mouse; format: ADME, organism-based; settings: in vivo
[4] = AUC in CD1 mouse brain at 30 mg/kg, po; format: ADME, organism-based; set-up: dose 30 mg/kg, route oral
[5] = AUC in CD1 mouse plasma at 30 mg/kg, po; format: ADME, organism-based; set-up: dose 30 mg/kg, route oral
[6] = Cmax in CD1 mouse at 10 mg/kg, po; format: ADME, organism-based; set-up: dose 10 mg/kg, route oral; settings: in vivo
[7] = Oral bioavailability in CD1 mouse at 10 mg/kg; format: ADME, organism-based; settings: in vivo
[8] = Half life in iv dosed CD1 mouse; format: ADME, organism-based; settings: in vivo
[9] = Ratio of drug level in plasma to brain of CD1 mouse
[10] = Drug level in mouse B16F10 transplanted TMZ-treated C57BL/6 mouse plasma […] at 25 mg/kg/day, po administered from day 6 to 10 post transplantation measured after 6 hrs of final dose in presence of TMZ; format: ADME, organism-based, C57BL6; set-up: route oral
[11] = Oral bioavailability in Beagle dog at […]; format: ADME, organism-based, Canis lupus familiaris; settings: in vivo
[12] = Half life in iv dosed Sprague-Dawley rat; format: ADME, organism-based; settings: in vivo
[13] = AUC in Beagle dog at […], po; format: ADME, organism-based, Canis lupus familiaris; set-up: dose 2.5 mg/kg, route oral; settings: plasma
[14] = Oral bioavailability in Sprague-Dawley rat at 5 mg/kg; format: ADME, organism-based; settings: in vivo
[15] = Terminal phase volume of distribution in Beagle dog; format: ADME, organism-based, Canis lupus familiaris; settings: in vivo, read-out: Vbeta
[16] = Cmax in Beagle dog at […], po; format: ADME, organism-based, Canis lupus familiaris; set-up: dose 2.5 mg/kg, route oral; settings: in vivo
[17] = Terminal phase volume of distribution in Sprague-Dawley rat; format: ADME, organism-based; settings: in vivo, read-out: Vbeta
[18] = Clearance in Sprague-Dawley rat; format: ADME, organism-based; settings: in vivo
[19] = Cmax in Sprague-Dawley rat at 5 mg/kg, po; format: ADME, organism-based; set-up: dose 5 mg/kg, route oral; settings: in vivo
[20] = Half life in iv dosed cynomolgus monkey; format: ADME, organism-based, Macaca fascicularis; settings: in vivo
[21] = Terminal phase volume of distribution in cynomolgus monkey; format: ADME, organism-based, Macaca fascicularis; settings: in vivo, read-out: Vbeta
[22] = Drug level in mouse B16F10 cells transplanted in C57BL/6 mouse at 25 mg/kg/day, po administered from day 6 to 10 post transplantation measured after 6 hrs of final dose; format: ADME, organism-based, C57BL6, B16-F10; set-up: route oral; settings: B16F10 tumour (neoplasm)
[23] = Drug level in mouse B16F10 transplanted C57BL/6 mouse plasma at 25 mg/kg/day, po administered from day 6 to 10 post transplantation measured after 6 hrs of final dose; format: ADME, organism-based, C57BL6; set-up: route oral
[24] = Clearance in Beagle dog; format: ADME, organism-based, Canis lupus familiaris; settings: in vivo
[25] = Cmax in cynomolgus monkey at […], po; format: ADME, organism-based, Macaca fascicularis; set-up: dose 2.5 mg/kg, route oral; settings: in vivo
[26] = Oral bioavailability in cynomolgus monkey at […]; format: ADME, organism-based, Macaca fascicularis; settings: in vivo
[27] = AUC in cynomolgus monkey at […], po; format: ADME, organism-based, Macaca fascicularis; set-up: dose 2.5 mg/kg, route oral; settings: plasma
[28] = Half life in iv dosed Beagle dog; format: ADME, organism-based, Canis lupus familiaris; settings: in vivo
[29] = Clearance in cynomolgus monkey; format: ADME, organism-based, Macaca fascicularis; settings: in vivo
[30] = AUC in Sprague-Dawley rat at 5 mg/kg, po; format: ADME, organism-based; set-up: dose 5 mg/kg, route oral; settings: plasma

| Compound | AUC [1] | Vd [2] | clearance [3] | AUC [4] | AUC [5] | Cmax [6] | bioavailability [7] | half-life [8] | Kp [9] | bioavailability [11] | half-life [12] | AUC [13] | bioavailability [14] | Vd [15] | Cmax [16] | Vd [17] | clearance [18] | Cmax [19] | half-life [20] | Vd [21] | also measured |
| --- | --- | --- | --- | --- | --- | --- | --- | --- | --- | --- | --- | --- | --- | --- | --- | --- | --- | --- | --- | --- | --- |
| NC(=O)c1cccc2[nH]c(-c3ccc([C@H]4CCCCN4)cc3F)nc12 | 1600 ng·h/mL | 15 L/kg | 122 mL/min/kg | 6300 ng·h/mL | 5800 ng·h/mL | 300 ng/mL | 100% | 84 min |  |  |  |  |  |  |  |  |  |  |  |  |  |
| NC(=O)c1cccc2[nH]c(-c3ccc([C@H]4CCCN4)cc3F)nc12 | 1000 ng·h/mL | 4.6 L/kg | 60 mL/min/kg | 1800 ng·h/mL | 4200 ng·h/mL | 500 ng/mL | 36% | 54 min | 2 |  |  |  |  |  |  |  |  |  |  |  |  |
| NC(=O)c1cccc2[nH]c(-c3ccc([C@@H]4CCCN4)cc3F)nc12 | 1200 ng·h/mL | 3.3 L/kg | 48.3 mL/min/kg | 4200 ng·h/mL | 9800 ng·h/mL | 600 ng/mL | 36% | 48 min | 2 | 72% | 114 min | 1100 ng·h/mL | 55% | 3.6 L/kg | 500 ng/mL | 4.1 L/kg | 28.3 mL/min/kg | 300 ng/mL | 108 min | 9.2 L/kg | concentration at 6 h [10]: 380 ng/mL; concentration at 6 h [22]: 17200 ng/mL; concentration at 6 h [23]: 220 ng/mL; clearance [24]: 28.3 mL/min/kg; Cmax [25]: 30 ng/mL; bioavailability [26]: 34%; AUC [27]: 200 ng·h/mL; half-life [28]: 102 min; clearance [29]: 68.3 mL/min/kg; AUC [30]: 1700 ng·h/mL |
| NC(=O)c1cccc2[nH]c(-c3ccc([C@@H]4CCCCN4)cc3F)nc12 | 1700 ng·h/mL | 6.6 L/kg | 60 mL/min/kg | 9100 ng·h/mL | 9900 ng·h/mL | 500 ng/mL | 63% | 78 min |  | 39% | 270 min | 300 ng·h/mL | 80% | 9.3 L/kg | 100 ng/mL | 14 L/kg | 38.3 mL/min/kg | 200 ng/mL | 300 min | 15 L/kg | clearance [24]: 56.7 mL/min/kg; Cmax [25]: 100 ng/mL; bioavailability [26]: 61%; AUC [27]: 750 ng·h/mL; half-life [28]: 120 min; clearance [29]: 36.7 mL/min/kg; AUC [30]: 1800 ng·h/mL |
